Results on three compounds are retold here after patent publication US20250215177A1, “BLOWING AGENT, FOAMING RESIN COMPOSITION, POLYUREA RESIN FOAM, AND PRODUCTION METHOD FOR POLYUREA RESIN FOAM” (MITSUBISHI GAS CHEMICAL COMPANY, INC., priority 2022, published 2025).

As a reminder, the pKa is the negative logarithm of the acid dissociation constant.

What all share (format): physicochemical
Data set [1] in a line: Percentage increase of mass of amine compound left to stand in air (absorption of carbon dioxide). To be noted: 23° C. and 50% RH. An excerpt:
Percentage increase of mass of cyclic amine compound (a1) [% by mass]=100×amount of increase of mass of cyclic amine compound (a1)(g)/(mass of cyclic amine compound (a1)(g)+amount of increase of mass of cyclic amine compound (a1)(g)).
[…] By doing so 1,3-BAC and carbon dioxide in the air were reacted to give a blowing agent (carbonate of 1,3-BAC). At that stage, to suppress uneven reaction, the container in which the amine compound was placed was shaken as necessary so as not to leave unreacted 1,3-BAC.
Next, the amount of increase of the mass of 1,3-BAC was measured and the percentage increase of the mass of the amine compound was calculated by the following equation.

A short description of data set [2]: Amine value of amine compound (JIS K7237-1995 titration). To be noted: titration with 0.1 N perchloric acid-acetic acid. Here is the method: The amine value was measured by the following measurement method according to JIS K7237-1995. • (1) 0.1 g of the amine compound was dissolved in 20 mL of acetic acid. • (2) The amine value was calculated by titrating the solution prepared in (1) above with 0.1 N perchloric acid-acetic acid solution using an automatic potentiometric titrator (AT-610 made by Kyoto Electronics Manufacturing Co., Ltd.)

The nature of data set [3]: Maximum endothermic temperature of amine compound (DTA). Particulars: heating rate 10° C./minute, 23 to 350° C., nitrogen; evaporation of amine compound. Here is the method: The cyclic amine compound (a1) is heated at a heating rate of 10° C./minute from 23° C. to 350° C. and the temperature at which the amount of heat absorbed due to evaporation of the amine compound (a1) reaches the maximum is measured, and the temperature is defined as the maximum endothermic temperature of the amine compound (a1).
The maximum endothermic temperature of the amine compound was measured by subjecting the amine compound to DTA as described below. First, […] of the amine compound was performed under conditions of a temperature range of 23 to 350° C., a heating rate of 10° C./minute and a nitrogen atmosphere using a differential thermogravimeter (product name DTG-60 made by Shimadzu Corporation). The temperature at which the amount of heat absorbed due to the evaporation of the amine compound was the maximum was calculated from the DTA curve obtained, and the temperature was determined as the maximum endothermic temperature of the amine compound.

Data set [4] can be described thus: Acid dissociation constant (pKa) of amine compound (potentiometric titration). Particulars: in purified water, 25±2° C. The procedure:
The acid dissociation constant of the amine compound was measured by the following measurement method. • (1) 0.2 g of the amine compound was dissolved in 30 mL of purified water. • (2) The acid dissociation constant (pKa) was calculated by titrating the solution prepared in (1) above with 0.1 N perchloric acid-acetic acid solution using an automatic potentiometric titrator (AT-610 made by Kyoto Electronics Manufacturing Co., Ltd.). The temperature in the measurement was 25±2° C.

Data set [5] can be described thus: Maximum carbon dioxide (CO2) release temperature of amine compound (DSC after CO2 absorption in air). To be noted: amine compound after 24 hours in air at 23° C. and 50% RH; heating rate 10° C./minute, 23 to 250° C., nitrogen. Here is the method:
The cyclic amine compound (a1) with carbon dioxide absorbed is heated at a heating rate of 10° C./minute from 23° C. to 250° C., and the temperature at which the amount of heat absorbed due to desorption of carbon dioxide reaches the maximum is measured, and the temperature is defined as the maximum carbon dioxide release temperature. In this regard the cyclic amine compound (a1) with carbon dioxide absorbed may be prepared by leaving 5 mmol of the cyclic amine compound (a1) to stand in air at 23° C. and 50% RH for 24 hours.
A carbon dioxide detector and a Petri dish were placed in an openable desiccator (inner dimension: 370 mm×260 mm×272 mm). […]
Then the amine compound was taken out of the desiccator to give an amine compound with carbon dioxide absorbed. The maximum carbon dioxide release temperature of the amine compound with carbon dioxide absorbed was measured by subjecting the amine compound to DSC as described below. […] The temperature at which the amount of heat absorbed due to the desorption of carbon dioxide was the maximum was calculated from the DSC curve obtained, and the temperature was determined as the maximum carbon dioxide release temperature of the amine compound.

For `NCC1CCCC(CN)C1` (stereo not shown) [1,3-BAC, 1,3-bis(aminomethyl)cyclohexane], the “Percentage increase of mass” value in data set [1] (CO2 absorption time 10 weeks) is 22.5 % by mass. In addition, the Amine value in data set [2] turned out to be 789 mgKOH/g.

Compound `NCCN` [Ethylenediamine, ethylenediamine] showed a Maximum endothermic temperature in data set [3] of 126.7 °C. The pKa in data set [4] is 9.8. Further, in data set [5], the “Maximum CO2 release temperature” value stood at 103.4 °C. Besides, the “Percentage increase of mass” value in data set [1] (CO2 absorption time 1 week) is 44.3 % by mass.

In turn, `NCc1cccc(CN)c1` [MXDA, metaxylylenediamine] returned an Amine value in data set [2] of 824 mgKOH/g.
